The half-life is the time needed for the level to fall by half in the phase considered.

Data on two molecules can be found in patent publication US20080138397A1, “PROCESSES FOR TASTE-MASKING OF INHALED FORMULATIONS” (Aradigm Corporation, priority 2006, published 2008).

SMILES strings stand for the structures.

Data set [1] in a line: Human clinical trials of AERx-inhaled HCQ, pharmacokinetics blood sample analysis. As to conditions: blood samples. Format: in vivo. The text has this:
Hydroxychloroquine or HCQ, known as a therapeutic for asthma and other respiratory diseases (U.S. Pat. No. 6,572,858), and administered by the inhalation route, is characterized by unpleasant taste. Formulation of HCQ, either singularly, or in combination, using one or more of the methods described above increases the therapeutic benefit of inhaled HCQ to treat asthma and other respiratory diseases. […] Thus, it would be an improvement to develop a formulation that provides a sustained release of HCQ in the lung, prolonging interaction of HCQ with the desired receptors in the lung tissue. Formulation strategies include encapsulation in liposomes or use of polymeric microspheres or nanospheres that slowly degrade and release HCQ. Other formulation strategies outlined previously can also be envisioned for such a formulation.

For data set [2] the following is noted: oral administration; extensive clearance via first pass metabolism; cited from earlier work.
The conditions of data set [3]: cited from earlier work.

Take `CCN(CCO)CCCC(C)Nc1ccnc2cc(Cl)ccc12` (centres unmarked) [HCQ, Hydroxychloroquine]: the “absorption from the lung” value in data set [1] is given as “rapidly absorbed”.
As to `CCCc1cc2c(s1)CN[C@@H]1CCc3cc(OC(C)=O)c(OC(C)=O)cc3[C@@H]21` [ABT-431], in data set [2], the oral bioavailability result is “less than 4%”. For the same molecule, in data set [3] (in vivo), the half-life was 2 to 3 h. In data set [3] (inhalation delivery), the absorption time entry is listed as “less than 10 minutes” and the tolerability result is listed as “poor”.
